Test systems include MOLT-4 leukemia; T-47D breast; BT-549 breast; HCC-2998 colon; SNB-75 CNS; SF-295 CNS; MCF7 breast; EKVX NSCLC; NCI/ADR-RES ovarian; A498 renal; KM12 colon; HT29 colon; IGROV1 ovarian.
Common to all, as to test: NCI tumour cell line growth inhibition, 48 h

Each structure is given as a SMILES string.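 Values below derive from 48-hour exposures of cells grown in 96-well plates, with endpoints linearly interpolated between the two concentrations bracketing the appropriate inhibition level. The concentration for full growth arrest is given as TGI.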

Turning to `c1cc(-c2ccc(Oc3ccc(-c4ccncc4)cc3)cc2)ccn1`, the TGI was 41.5 µM in the test on MOLT-4 leukemia; > 100 µM in the test with T-47D breast; > 59.7 µM in the test with BT-549 breast; > 54.5 µM in the test with HCC-2998 colon; > 73.7 µM in the test with SNB-75 CNS; > 100 µM in the test with SF-295 CNS. For the same compound, the TGI is > 100 µM with MCF7 breast; > 67.1 µM in the test with EKVX NSCLC; > 90.9 µM with NCI/ADR-RES ovarian; > 69.7 µM in the test with A498 renal; > 27.4 µM with KM12 colon; > 49.6 µM in the test on HT29 colon. The TGI in the test on IGROV1 ovarian is > 100 µM.

Take `COC(=O)c1c(OC(C)=O)ccc2c1c1c(n2Cc2ccccc2)C(=O)c2ccccc2C1=O`: the TGI was > 100 µM in the test with MOLT-4 leukemia; 56.3 µM in the test with T-47D breast; 48.5 µM with BT-549 breast; 30.3 µM in the test with HCC-2998 colon; 52.4 µM in the test with SNB-75 CNS; 38.5 µM in the test with SF-295 CNS. Moreover, the TGI was > 100 µM in the test on MCF7 breast; 48.3 µM with EKVX NSCLC; 61.6 µM with NCI/ADR-RES ovarian; 43.6 µM with A498 renal; 47.4 µM in the test with KM12 colon; 32.3 µM in the test with HT29 colon. Besides, the TGI with IGROV1 ovarian is 50.4 µM.

Consider `CSc1ccc(C=C2N=C(c3ccccc3)N(c3cc(C(=O)c4ccccc4)ccc3N3C(=O)/C(=C/c4ccc(SC)cc4)N=C3c3ccccc3)C2=O)cc1`, for which the TGI was > 100 µM in the test with MOLT-4 leukemia; > 100 µM in the test with T-47D breast; > 100 µM with BT-549 breast; > 100 µM in the test with HCC-2998 colon; 61.5 µM with SNB-75 CNS; > 100 µM in the test with SF-295 CNS. For the same compound, the TGI with MCF7 breast, with EKVX NSCLC, in the test with NCI/ADR-RES ovarian, with A498 renal, in the test with KM12 colon and in the test on HT29 colon was > 100 µM throughout. Further, the TGI in the test on IGROV1 ovarian is > 100 µM.

For the compound `[N-]=[N+]=NC1=C(N=[N+]=[N-])c2cccc3cccc(c23)C1=O`, the TGI with MOLT-4 leukemia, in the test with T-47D breast, in the test on BT-549 breast, in the test on HCC-2998 colon, in the test with SNB-75 CNS and with SF-295 CNS was > 100 µM in each case. Besides, the TGI in the test with MCF7 breast, in the test with EKVX NSCLC, in the test with NCI/ADR-RES ovarian, in the test on A498 renal, with KM12 colon and in the test on HT29 colon was > 100 µM each time. Also, the TGI in the test with IGROV1 ovarian is > 100 µM.

`CC(=O)Nc1ccccc1S(=O)(=O)c1c(-c2c(C)c(Cl)c(C)c(Cl)c2C)noc1C`: the TGI is > 100 µM in the test on MOLT-4 leukemia; > 100 µM in the test on T-47D breast; > 100 µM in the test on BT-549 breast; > 100 µM with HCC-2998 colon; 34.6 µM with SNB-75 CNS; > 100 µM with SF-295 CNS. For the same compound, the TGI in the test on MCF7 breast, with EKVX NSCLC, with NCI/ADR-RES ovarian, with A498 renal, in the test with KM12 colon and with HT29 colon was > 100 µM throughout. The TGI in the test with IGROV1 ovarian is > 100 µM.

In the case of `O=Cc1cc(O)ccc1Br`, the TGI in the test with MOLT-4 leukemia is 43.8 µM; with T-47D breast, > 100 µM; in the test with BT-549 breast it was > 83.4 µM; with HCC-2998 colon, 30.1 µM; in the test with SNB-75 CNS it was > 100 µM; in the test on SF-295 CNS, 99.5 µM. Besides, the TGI with MCF7 breast was > 100 µM; in the test on EKVX NSCLC, > 100 µM; in the test with NCI/ADR-RES ovarian, > 76.2 µM; in the test with A498 renal, > 100 µM; in the test on KM12 colon it was > 81.6 µM; in the test with HT29 colon, 67.5 µM. In the test with IGROV1 ovarian, the TGI is > 100 µM.

Turning to `C[N+](C)(C)C(Cc1c[nH]c(=S)[nH]1)C(=O)O` (stereo unspecified), the TGI in the test on MOLT-4 leukemia, with T-47D breast, in the test on BT-549 breast, in the test on HCC-2998 colon, with SNB-75 CNS and in the test on SF-295 CNS was > 100 µM throughout. Moreover, the TGI in the test on MCF7 breast, in the test with EKVX NSCLC, with NCI/ADR-RES ovarian, in the test on A498 renal, in the test on KM12 colon and with HT29 colon was > 100 µM in each case. In the test on IGROV1 ovarian, the TGI is > 100 µM.

As to `Cc1cc2c(cc1-c1cc3c(cc1C)C(C(C)C)=C(O)C(=O)/C3=C\Nc1cccc3c(N)cccc13)/C(=C/Nc1cccc3c(N)cccc13)C(=O)C(O)=C2C(C)C`, the TGI in the test with MOLT-4 leukemia, with T-47D breast, with BT-549 breast, with HCC-2998 colon, in the test on SNB-75 CNS and in the test on SF-295 CNS was > 100 µM throughout. The TGI in the test with MCF7 breast, in the test with EKVX NSCLC, in the test on NCI/ADR-RES ovarian, in the test on A498 renal, in the test on KM12 colon and in the test on HT29 colon was > 100 µM each time. For the same compound, the TGI in the test with IGROV1 ovarian is > 100 µM.

For `COc1cc([C@@H]2c3cc4c(cc3[C@@H](N=Cc3ccc(C(=O)O[C@H]5C[C@H]6OC[C@@]6(OC(C)=O)[C@H]6[C@H](OC(=O)c7ccccc7)[C@]7(O)C[C@H](OC(=O)[C@H](OC(=O)c8ccc(C=N[C@@H]9c%10cc%11c(cc%10[C@@H](c%10cc(OC)c(O)c(OC)c%10)[C@H]%10C(=O)OC[C@@H]%109)OCO%11)cc8)[C@@H](NC(=O)c8ccccc8)c8ccccc8)C(C)=C([C@@H](OC(C)=O)C(=O)[C@]56C)C7(C)C)cc3)C3COC(=O)C32)OCO4)cc(C)c1O` (stereo partly specified), the TGI with MOLT-4 leukemia, in the test on T-47D breast, in the test on BT-549 breast, in the test with HCC-2998 colon, with SNB-75 CNS and in the test on SF-295 CNS was > 50 µM throughout. Moreover, the TGI in the test with MCF7 breast was 48.5 µM; in the test on EKVX NSCLC, > 35.2 µM; with NCI/ADR-RES ovarian it was > 50 µM; with A498 renal, 29.2 µM; in the test with KM12 colon it was > 50 µM; in the test on HT29 colon it was > 25.2 µM. The TGI in the test on IGROV1 ovarian was > 50 µM.

For `COc1cc(/C=C2\N=C(c3ccccc3)N(/N=C/c3cc4cc(C)ccc4nc3Cl)C2=O)ccc1O`, the TGI with MOLT-4 leukemia was 47.8 µM; in the test on T-47D breast it was > 100 µM; in the test with BT-549 breast, > 100 µM; in the test on HCC-2998 colon it was > 100 µM; with SNB-75 CNS, 83.9 µM; in the test with SF-295 CNS, > 100 µM. Moreover, the TGI in the test with MCF7 breast was 63.1 µM; with EKVX NSCLC, > 100 µM; in the test with NCI/ADR-RES ovarian, > 100 µM; in the test on A498 renal, 55.3 µM; in the test on KM12 colon, > 100 µM; in the test on HT29 colon, > 100 µM. Also, the TGI in the test with IGROV1 ovarian was > 100 µM.

With `O=C1C(c2c(O)n(-c3ccccc3)c3ccccc23)=Nc2ccccc21`, the TGI is > 100 µM with MOLT-4 leukemia; 71.9 µM with T-47D breast; > 100 µM with BT-549 breast; 75.5 µM with HCC-2998 colon; 40.4 µM in the test on SNB-75 CNS; > 100 µM in the test on SF-295 CNS. Further, the TGI with MCF7 breast was 37 µM; in the test on EKVX NSCLC, 83.2 µM; with NCI/ADR-RES ovarian it was > 100 µM; in the test on A498 renal, 75.7 µM; in the test with KM12 colon, > 100 µM; with HT29 colon, > 100 µM. The TGI with IGROV1 ovarian is > 100 µM.

For the compound `CC(=O)NC1C(OCc2ccccc2)OC(CO)C(O)C1OCC(=O)NC(C)C(=O)NC(CCC(=O)Nc1ccc2c(c1)CN1C(=O)c3ccccc3C1=N2)C(N)=O` (stereo unspecified), the TGI in the test with MOLT-4 leukemia, in the test on T-47D breast, with BT-549 breast, with HCC-2998 colon, in the test on SNB-75 CNS and in the test on SF-295 CNS was > 100 µM in each case. Also, the TGI in the test with MCF7 breast, in the test on EKVX NSCLC, with NCI/ADR-RES ovarian, in the test on A498 renal, with KM12 colon and with HT29 colon was > 100 µM throughout. Further, in the test with IGROV1 ovarian, the TGI is > 100 µM.

With `O=C(c1no[n+]([O-])c1C(=O)c1csc2ccccc12)c1csc2ccccc12`, the TGI stood at 3.17 µM with MOLT-4 leukemia; 13.7 µM in the test with T-47D breast; 19.3 µM with BT-549 breast; 18.4 µM with HCC-2998 colon; 28.5 µM with SNB-75 CNS; 29 µM with SF-295 CNS. In addition, the TGI in the test on MCF7 breast turned out to be 25 µM; with EKVX NSCLC, 12.5 µM; in the test with NCI/ADR-RES ovarian, 56.3 µM; with A498 renal it was 29.3 µM; in the test on KM12 colon it was 18.7 µM; with HT29 colon, 13.7 µM. The compound further yielded a TGI in the test with IGROV1 ovarian of 5.69 µM.

Take `CC(C)c1cc(C(C)C)c(P2(=O)CC3C(Cl)(Cl)C3(C)C2)c(C(C)C)c1` (stereo unspecified): the TGI with MOLT-4 leukemia is > 23.1 µM; in the test with T-47D breast, 27.7 µM; in the test on BT-549 breast, 27.7 µM; with HCC-2998 colon, 26.9 µM; with SNB-75 CNS, 24.8 µM; in the test on SF-295 CNS, 18.6 µM. The TGI in the test with MCF7 breast was 19.5 µM; with EKVX NSCLC, 31 µM; with NCI/ADR-RES ovarian, 16 µM; with A498 renal it was 26.9 µM; in the test with KM12 colon it was 28.4 µM; with HT29 colon, 24.6 µM. This compound also returned a TGI with IGROV1 ovarian of 29.5 µM.

Consider `O=C(O)c1ccccc1/C=C1\Cc2ccc3c(c2C1=O)CCCC3`, for which the TGI in the test with MOLT-4 leukemia is 58.6 µM; with T-47D breast, 79.3 µM; in the test with BT-549 breast, > 100 µM; in the test on HCC-2998 colon, 85.1 µM; with SNB-75 CNS, 86 µM; in the test on SF-295 CNS, 99.5 µM. In addition, the TGI in the test on MCF7 breast is > 100 µM; with EKVX NSCLC, > 100 µM; in the test on NCI/ADR-RES ovarian, > 100 µM; in the test on A498 renal it was 89 µM; with KM12 colon, > 100 µM; with HT29 colon, > 100 µM. For the same compound, in the test with IGROV1 ovarian, the TGI is > 100 µM.

Regarding `COC(=O)/C=C1/OC(c2ccccc2)=CC1=O`, the TGI amounted to 17.3 µM in the test on MOLT-4 leukemia; 49.9 µM in the test with T-47D breast; 32 µM in the test on BT-549 breast; 33.5 µM in the test on HCC-2998 colon; 30.9 µM with SNB-75 CNS; 21.8 µM with SF-295 CNS. For the same compound, the TGI with MCF7 breast was 25.4 µM; with EKVX NSCLC, > 62.2 µM; with NCI/ADR-RES ovarian, 58.7 µM; with A498 renal, 18.7 µM; with KM12 colon it was 32.4 µM; in the test on HT29 colon, 39 µM. In the test with IGROV1 ovarian, the TGI worked out at 33.9 µM.

`O=C1NC(c2ccccc2)C1N(Cc1ccccc1)Cc1ccccc1` (stereo unspecified): the TGI with MOLT-4 leukemia, with T-47D breast, in the test with BT-549 breast, in the test with HCC-2998 colon, with SNB-75 CNS and in the test with SF-295 CNS was > 100 µM in each case. Moreover, the TGI in the test on MCF7 breast, in the test with EKVX NSCLC, in the test on NCI/ADR-RES ovarian, in the test with A498 renal, in the test on KM12 colon and in the test with HT29 colon was > 100 µM each time. In addition, in the test on IGROV1 ovarian, the TGI is > 100 µM.
